Assay results as given in patent US20230150921A1, “PHENOLIC ACID LIPID BASED CATIONIC LIPIDS” (Translate Bio, Inc., priority 2020, published 2023).

Experiment: Characterisation of lipid nanoparticle formulations (size, PDI, mRNA encapsulation)
Format: physicochemical
Conditions: lipid nanoparticle with FFL mRNA; Process A; Cationic Lipid:DMG-PEG2000:Cholesterol:DOPE 40:5:25:30 mol%; N/P 4
Method: One exemplary process for lipid nanoparticle formulation is Process A of WO 2018/089801 (see, e.g., Example 1 and FIG. 1 of WO 2018/089801). Process A (“A”) relates to a conventional method of encapsulating mRNA by mixing mRNA with a mixture of lipids, without first pre-forming the lipids into lipid nanoparticles. In an exemplary process, an ethanol lipid solution and an aqueous buffered solution of mRNA were prepared separately. A solution of mixture of lipids (cationic lipid, helper lipids, zwitterionic lipids, PEG lipids etc.) was prepared by dissolving lipids in ethanol. The mRNA solution was prepared by dissolving the mRNA in citrate buffer. The mixtures were then both heated to 65° C. prior to mixing. Then, these two solutions were mixed using a pump system. In some instances, the two solutions were mixed using a gear pump system. In certain embodiments, the two solutions were mixing using a ‘T’ junction (or “Y” junction). The mixture was then purified by diafiltration with a TFF process. The resultant formulation concentrated and stored at 2-8° C. until further use. A second exemplary process for lipid nanoparticle formulation is Process B of WO 2018/089801 (see, e.g., Example 2 and the FIGURE of WO 2018/089801). Process B (“B”) refers to a process of encapsulating messenger RNA (mRNA) by mixing pre-formed lipid nanoparticles with mRNA. A range of different conditions, such as varying temperatures (i.e., heating or not heating the mixture), buffers, and concentrations, may be employed in Process B. In an exemplary process, lipids dissolved in ethanol and citrate buffer were mixed using a pump system. […] The resultant formulation mixture was empty lipid nanoparticles in citrate buffer containing alcohol. The formulation was then subjected to a TFF purification process wherein buffer exchange occurred. The resulting suspension of pre-formed empty lipid nanoparticles was then mixed with mRNA using a pump system. […] The lipid nanoparticle formulations of Table 5 were prepared by either Process A or B. Each formulation comprised mRNA encoding firefly luciferase protein (FFL mRNA) and lipids (Cationic Lipid: DMG-PEG2000; Cholesterol: DOPE) in the mol % ratios set forth in Table 5.

Structure (SMILES)	Encapsulation %	PDI	Size (nm)
CCCCCCCCCCC(O)CN(CCCC(=O)Oc1ccc(C(=O)OCCCN(C)C)cc1CC)CC(O)CCCCCCCCCC (stereo not drawn) [Compound 12]	96%	0.173	65.1 nm
CCCCCCCCCCC(O)CN(CCCC(=O)Oc1c(OC)cc(/C=C/C(=O)OCCCN(C)C)cc1OC)CC(O)CCCCCCCCCC (stereo not drawn) [Compound 8]	95%	0.193	43.3 nm
CCCCCCCCCCCCC(O)CN(CCCCC(=O)Oc1c(OC)cc(/C=C/C(=O)OCCCN(C)C)cc1OC)CC(O)CCCCCCCCCCCC (stereo not drawn) [Compound 11]	98%	0.214	44.0 nm
CCCCCCCCC(O)CN(CCCCC(=O)Oc1c(OC)cc(C(=O)OCCCN(C)C)cc1OC)CC(O)CCCCCCCC (stereo not drawn) [Compound 9]	79%	0.213	42.3 nm
CCCCCCC/C=C\C/C=C\CCCCC(O)CN(CCCC(=O)Oc1c(OC)cc(C(=O)OCCCN(C)C)cc1OC)CC(O)CCCC/C=C\C/C=C\CCCCCCC (stereo not drawn) [Compound 7]	95%	0.429	64.2 nm
CCCCCCCCCCC(O)CN(CCCC(=O)Oc1c(OC)cc(C(=O)OCCCN(C)C)cc1OC)CC(O)CCCCCCCCCC (stereo not drawn) [Compound 2]	94%	0.251	48.9 nm
CCCCCCCCCCCCC(O)CN(CCCC(=O)Oc1c(OC)cc(C(=O)OCCCN(C)C)cc1OC)CC(O)CCCCCCCCCCCC (stereo not drawn) [Compound 5]	97%	0.249	48.4 nm
CCCCCCCCCCC(O)CN(CCCCC(=O)Oc1c(OC)cc(/C=C/C(=O)OCCCN(C)C)cc1OC)CC(O)CCCCCCCCCC (stereo not drawn) [Compound 10]	94%	0.213	43.3 nm
CCCCCCCCCCC(O)CN(CCCCC(=O)Oc1c(OC)cc(C(=O)OCCCN(C)C)cc1OC)CC(O)CCCCCCCCCC (stereo not drawn) [Compound 4]	91%	0.198	41.4 nm
CCCCCCCCC(O)CN(CCCC(=O)Oc1c(OC)cc(C(=O)OCCCN(C)C)cc1OC)CC(O)CCCCCCCC (stereo not drawn) [Compound 1]	94%	0.235	47.6 nm
CCCCCCCCC(O)CN(CCCCC(=O)Oc1c(OC)cc(C(=O)OCCCN(C)C)cc1OC)CC(O)CCCCCCCC (stereo not drawn) [Compound 3]	89%	0.207	40.3 nm
CCCCCCCCCCCCC(O)CN(CCCCC(=O)Oc1c(OC)cc(C(=O)OCCCN(C)C)cc1OC)CC(O)CCCCCCCCCCCC (stereo not drawn) [Compound 6]	73%	0.208	47.0 nm
